Experimental data: patent US8003704B2, “Methods and compositions for the treatment of alcoholism and alcohol dependence” (priority 2000, dated 2011)

Key:
Type in all cases: biochemical
[1] = system: AlDH of bacterial sources; assay: Screening of tryptophan metabolites for inhibition of bacterial AlDH activity in vitro; conditions: for % inhibition of AlDH activity: 100 μM concentration, in vitro
Procedure: Tryptophan and its various metabolites were tested for possible inhibition of activity of AlDH of bacterial sources. The terms “inhibitor of AlDH activity” and the like mean that the activity of AlDH in vivo in the presence of the inhibitor is reduced. In practice, this may be predicted by reference to the inhibitory activity of the compound or composition in vitro.
An enzyme preparation was purchased from Sigma, (Poole, Dorset, UK) and was used for the screening of tryptophan and its metabolites. A number of preliminary experiments were performed to optimise the conditions of the assay, which was performed according to standard experimental conditions published in the literature and well known to those skilled in the art. All assays were performed in triplicate or quadruplicate determinations for both controls (no additions) and tryptophan metabolites.
Tryptophan and its metabolites were first tested at a 100 μM concentration. The tryptophan metabolites screened included the following: […]

[2] = target: T1, low Km AlDH from rat liver (Rattus norvegicus, UniProt P11884); assay: Inhibition of mammalian mitochondrial (low Km) AlDH in rat liver preparation; conditions: Example 4, rat liver low Km AlDH, 5 μM acetaldehyde
T1 construct: using a preparation from rat liver containing both Low Km and high Km AlDH; from tissue; host or cells: rat liver preparation
T1 sequence (P11884 20-519): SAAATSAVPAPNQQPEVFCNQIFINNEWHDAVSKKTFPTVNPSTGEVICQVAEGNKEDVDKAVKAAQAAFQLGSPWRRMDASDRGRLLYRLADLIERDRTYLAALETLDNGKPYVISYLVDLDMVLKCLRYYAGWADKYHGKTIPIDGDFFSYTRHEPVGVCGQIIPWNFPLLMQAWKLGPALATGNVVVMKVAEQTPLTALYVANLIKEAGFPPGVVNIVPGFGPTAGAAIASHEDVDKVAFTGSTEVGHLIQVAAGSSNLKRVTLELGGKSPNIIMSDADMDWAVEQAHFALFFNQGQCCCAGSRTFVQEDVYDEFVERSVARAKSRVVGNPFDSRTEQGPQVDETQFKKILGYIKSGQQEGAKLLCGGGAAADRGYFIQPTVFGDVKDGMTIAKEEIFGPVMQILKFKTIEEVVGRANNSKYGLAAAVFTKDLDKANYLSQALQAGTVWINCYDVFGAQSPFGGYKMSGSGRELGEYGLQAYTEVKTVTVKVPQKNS
Procedure: Experiments were therefore performed using a preparation from rat liver in which both the low Km and the high Km enzymes can be measured simultaneously, but at different substrate (acetaldehyde) concentrations, namely, 5 μM for the low Km and 5 mM for the high Km, enzyme.

[3] = target: T1, low Km AlDH from rat liver; assay: as above; conditions: Example 3, preliminary results, 2 μM concentration

OCCc1c[nH]c2ccc(O)cc12 [5-hydroxytryptophol]
% inhibition of AlDH activity [1]: 7%

Nc1c(O)cccc1C(=O)O [3-hydroxyanthranilic acid]
inhibition of activity of the low Km enzyme ([2]; 2 μM concentration): 46%
inhibition of activity of the low Km enzyme ([2]; 10 μM concentration): 54%
inhibition of activity of the low Km enzyme ([2]; 100 μM concentration): 76%
inhibition of bacterial AlDH activity ([1]; 2 μM concentration): 3%
inhibition of bacterial AlDH activity ([1]; 10 μM concentration): 17%
% inhibition of AlDH activity [1]: 97%
inhibition of the mammalian low km enzyme [3]: 46%

Nc1ccccc1C(=O)O [anthranilic acid]
% inhibition of AlDH activity [1]: 9%

O=C(O)c1cc(=O)c2ccccc2[nH]1 [kynurenic acid]
inhibition of activity of the low Km enzyme ([2]; 2 μM concentration): 40%
inhibition of activity of the low Km enzyme ([2]; 10 μM concentration): 43%
inhibition of activity of the low Km enzyme ([2]; 100 μM concentration): 43%
inhibition of bacterial AlDH activity ([1]; 2 μM concentration): 5%
inhibition of bacterial AlDH activity ([1]; 10 μM concentration): 30%
% inhibition of AlDH activity [1]: 90%
inhibition of the mammalian low km enzyme [3]: 30%

O=C(O)Cc1c[nH]c2ccc(O)cc12 [5-hydroxyindol-3-ylacetic acid]
% inhibition of AlDH activity [1]: 4%

Nc1ccccc1C(=O)CC(N)C(=O)O (stereo not drawn) [kynurenine]
% inhibition of AlDH activity [1]: 24%

N[C@@H](Cc1c[nH]c2ccccc12)C(=O)O [tryptophan]
% inhibition of AlDH activity [1]: 2%

NCCc1c[nH]c2ccccc12 [tryptamine]
% inhibition of AlDH activity [1]: 0%

Nc1c(O)cccc1C(=O)CC(N)C(=O)O (stereo not drawn) [3-hydroxykynurenine]
inhibition of activity of the low Km enzyme ([2]; 2 μM concentration): 55%
inhibition of activity of the low Km enzyme ([2]; 10 μM concentration): 52%
inhibition of activity of the low Km enzyme ([2]; 100 μM concentration): 69%
inhibition of bacterial AlDH activity ([1]; 2 μM concentration): +1%
inhibition of bacterial AlDH activity ([1]; 10 μM concentration): 55%
% inhibition of AlDH activity [1]: 97%
inhibition of the mammalian low km enzyme [3]: 65%

O=C(O)c1cccnc1C(=O)O [quinolinic acid]
% inhibition of AlDH activity [1]: 13%

NCCc1c[nH]c2ccc(O)cc12 [5-hydroxytryptamine]
% inhibition of AlDH activity [1]: 15%

c1ccc2c(c1)[nH]c1cnccc12 [norharman]
% inhibition of AlDH activity [1]: 23%

NC(=O)c1cccnc1 [nicotinamide]
% inhibition of AlDH activity [1]: 7%

O=C(O)Cc1c[nH]c2ccccc12 [indol-3-ylacetic acid]
% inhibition of AlDH activity [1]: 11%

O=CCc1c[nH]c2ccccc12 [indol-3-ylacetaldehyde]
% inhibition of AlDH activity [1]: 55%

O=C(O)c1cc(O)c2cccc(O)c2n1 [xanthurenic acid]
% inhibition of AlDH activity [1]: 56%

N[C@@H](Cc1c[nH]c2ccc(O)cc12)C(=O)O [5-hydroxytrytophan]
% inhibition of AlDH activity [1]: 23%

O=C(O)C(=O)Cc1c[nH]c2ccccc12 [indol-3-ylpyruvic acid]
inhibition of activity of the low Km enzyme ([2]; 2 μM concentration): 30%
inhibition of activity of the low Km enzyme ([2]; 10 μM concentration): 38%
inhibition of activity of the low Km enzyme ([2]; 100 μM concentration): 53%
inhibition of bacterial AlDH activity ([1]; 2 μM concentration): 24%
inhibition of bacterial AlDH activity ([1]; 10 μM concentration): 29%
% inhibition of AlDH activity [1]: 94%
inhibition of the mammalian low km enzyme [3]: 37%

O=C(O)c1ccc2ccccc2n1 [quinaldic acid]
% inhibition of AlDH activity [1]: 7%

CCN(CC)C(=S)SSC(=S)N(CC)CC [disulfiram, reference compound]
inhibition of activity of the low Km enzyme ([2]; 2 μM concentration): 30-46%
inhibition of activity of the low Km enzyme ([2]; 10 μM concentration): 38-43%
inhibition of activity of the low Km enzyme ([2]; 100 μM concentration): 46-50%
inhibition of the mammalian low km enzyme [3]: 30-46%

O=C(O)CCCC(=O)C(=O)O [α-ketoadipic acid]
% inhibition of AlDH activity [1]: 1%
